Results from patent EP4803519A1, “NOVEL PRMT5 INHIBITOR AND USE THEREOF” (Shanghai Apeiron Therapeutics Company Limited, priority 2023, dated 2025).

How the values were obtained:
[1] = tested on: HCT-116 MTAP(-/-)deleted cells; test: Inhibitory activity on proliferation of HCT-116 MTAP(-/-)deleted cells (Cell-Titer Glo); type: cell-based; conditions: Homo sapiens, 144 h, incubated 6 d, 0-1,000 nM
Method: (§1) Materials and cells: HCT-116 MTAP(-/-)deleted cells were purchased from Kyinno Biotechnology (China); RPMI-1640 medium, and fetal bovine serum were purchased from Thermo Fisher (United States); 384-well plates were purchased from PerkinElmer (United States); Cell-Titer Glo kit was purchased from Promega (United States).
Cell culture: HCT116 MTAP(-/-)deleted cells were cultured with RPMI 1640 medium containing 10% fetal bovine serum at 37°C in 5% carbon dioxide. Only cells in the logarithmic growth phase could be used for the test.
Test of inhibitory activity on cell proliferation: The Cell-Titer Glo kit was used to test the proliferation inhibitory activity of the compounds on HCT-116 MTAP(-/-)deleted cells. The cell concentration was adjusted, rendering that cells were inoculated into a 384-well plate at 40 µL per well and incubated overnight at 37°C and 5% carbon dioxide. 80 nL of the compound was added into each well to reach a final concentration of 0-1,000 nM (starting concentration 1,000 nM, 2.5-fold dilution, 10 points), and the cell plate with 0.2% DMSO content was incubated at 37°C and 5% carbon dioxide for 6 d. 40 µL of Cell-Titer Glo reagent was added to test cell viability.

HCT-116 wild-type cells = test: Inhibitory activity on proliferation of HCT-116 wild-type cells (Cell-Titer Glo); type: cell-based; conditions: Homo sapiens, 144 h, incubated 6 d, 0-10,000 nM
Method: as §1, with “wild-type” for “MTAP(-/-)deleted”
Cell culture: HCT-116 wild-type cells were cultured in RPMI-1640 medium containing 10% fetal bovine serum at 37°C and 5% carbon dioxide. Only cells in the logarithmic growth phase could be used for the test.
Test of cell proliferation activity: Cell-Titer Glo kit was used to test the proliferation inhibitory activity of the compound on HCT-116 wild-type cells. The cell concentration was adjusted, rendering that cells were inoculated into a 384-well plate at 40 µL per well and incubated overnight at 37°C and 5% carbon dioxide. 80 nL of the compound was added to each well to reach a final concentration of 0-10,000 nM (starting concentration 10,000 nM, 2.5-fold dilution, 10 points), and the cell plate with 0.2% DMSO content was incubated at 37°C and 5% carbon dioxide for 6 d. 40 µL of Cell-Titer Glo reagent was added to test cell viability.

IC50 [1] | IC50 (HCT-116 wild-type cells) | Compound
318 nM | 7210 nM | CN(C(=O)c1ccc2nc(N)c3c(c2c1)CCCC3)C1COC(C)(C)c2cc(C(F)(F)F)ccc21 (stereo not drawn) [Example 19, 6-Amino-N-(1,1-dimethyl-7-(trifluoromethyl)isochroman-4-yl)-N-methyl-7,8,9,10-tetrahydrophenanthridine-2-carboxamide]
738 nM | 5870 nM | CN(C(=O)c1ccc2nc(N)c3ccccc3c2c1)C1COC(C)(C)c2cc(C(F)(F)F)ccc21 (stereo not drawn) [Example 20, 6-Amino-N-(1,1-dimethyl-7-(trifluoromethyl)isochroman-4-yl)-N-methylphenanthridine-2-carboxamide]
9.8 nM | 1030 nM | CN(C(=O)c1cc2c(cc1C(F)(F)F)nc(N)c1cnn(C)c12)[C@@H]1COC2(CCC2)c2cc(C(F)(F)F)ccc21 [Example 77]
10.5 nM | 2110 nM | CN(C(=O)c1ccc2nc(N)c3cnn(C)c3c2c1)C1COC(C)(C)c2cc(N3CCC(F)(F)C3)ccc21 (stereo not drawn) [Example 74, 4-Amino-N-(7-(3,3-difluoropyrrolidin-1-yl)-1,1-dimethylisochroman-4-yl)-N,1-dimethyl-1H-pyrazolo[4,3-c]quinoxaline-8-carboxamide]
435 nM | 7540 nM | CN(C(=O)c1ccc2nc(N)c3ccsc3c2c1)C1COC(C)(C)c2cc(C(F)(F)F)ccc21 (stereo not drawn) [Example 3, 4-Amino-N-(1,1-dimethyl-7-(trifluoromethyl)isochroman-4-yl)-N-methylthieno[3,2-c]quinoline-8-carboxamide]
20.2 nM | > 10000 nM | CN(C(=O)c1ccc2nc(N)c3cnn(C)c3c2c1)[C@@H]1COC(C)(C)c2cc(N3CCOCC3)ncc21 [Example 55]
5.2 nM | 880 nM | CN(C(=O)c1ccc2nc(N)c3cnn(C)c3c2c1)[C@@H]1COC(C)(C)c2cc(C3=CCOCC3)ccc21 [Example 57, (S)-4-amino-N-(7-(3,6-dihydro-2H-pyran-4-yl)-1,1-dimethylisochroman-4-yl)-N,1-dimethyl-1H-pyrazolo[4,3-c]quinoxaline-8-carboxamide]
147 nM | 3120 nM | CN(C(=O)c1ccc2nc(N)c3c(c2c1)CCC3)C1COC(C)(C)c2cc(C(F)(F)F)ccc21 (stereo not drawn) [Example 11, 4-Amino-N-(1,1-dimethyl-7-(trifluoromethyl)isochroman-4-yl)-N-methyl-2,3-dihydro-1H-cyclopenta[c]quinoline-8-carboxamide]
11.2 nM | 763 nM | Cn1ncc2c(N)nc3cnc(C(=O)N(C4CC4)C4COC5(CCC5)c5cc(C(F)(F)F)ccc54)cc3c21 (stereo not drawn) [Example 87, 4-Amino-N-cyclopropyl-1-methyl-N-(7'-(trifluoromethyl)spiro[cyclobutane-1,1'-isochroman]-4'-yl)-1H-pyrazolo[4,3-c][1,7]naphthyridine-8-carboxamide]
7.9 nM | 435 nM | CN(C(=O)c1ccc2nc(N)c3cnn(C)c3c2c1)C1COC(C)(C)c2cc(-c3cnc4cnccn34)ccc21 (stereo not drawn) [Example 48]
8.2 nM | 2610 nM | CN(C(=O)c1ccc2nc(N)c3cnn(C)c3c2c1)[C@@H]1COC(C)(C)c2cc(N3CCC4(CC3)COC4)ccc21 [Example 75, (S)-4-amino-N-(1,1-dimethyl-7-(2-oxa-7-azaspiro[3.5]nonan-7-yl)isochroman-4-yl)-N,1-dimethyl-1H-pyrazolo[4,3-c]quinoxaline-8-carboxamide]
5.2 nM | 1200 nM | CN(C(=O)c1ccc2nc(N)c3cnn(C)c3c2c1)C1COC(C)(C)c2cc(C(F)(F)F)ccc21 (stereo not drawn) [Example 1, 4-amino-N-(1,1-dimethyl-7-(trifluoromethyl)isochroman-4-yl)-N,1-dimethyl-1H-pyrazolo [4,3-c] quinoline-8-carboxamide]
6.2 nM | 285 nM | CN(C(=O)c1cc2c(cn1)nc(N)c1cnn(C)c12)C1COC2(CCC2)c2cc(C(F)(F)F)ccc21 (stereo not drawn) [Example 31]
5.8 nM | 1810 nM | CN(C(=O)c1ccc2nc(N)c3cnn(C)c3c2c1)[C@@H]1COC(C)(C)c2nc(N3CCOCC3)ccc21 [Example 54]
> 3000 nM | > 10000 nM | CN(C(=O)c1ccc2nc(N)c3c(c2c1)OCCO3)C1COC(C)(C)c2cc(C(F)(F)F)ccc21 (stereo not drawn) [Example 2, 5-Amino-N-(1,1-dimethyl-7-(trifluoromethyl)isochroman-4-yl)-N-methyl-2,3-dihydro-[1,4]dioxa[2,3-c]quinoline-9-carboxamide]
6.1 nM | 2520 nM | CN(C(=O)c1ccc2nc(N)c3cnn(C)c3c2c1)[C@@H]1COC(C)(C)c2cc(N3CC(F)(F)C3)ccc21 [Example 76, (S)-4-amino-N-(7-(3,3-difluoroazetidin-1-yl)-1,1-dimethylisochroman-4-yl)-N,1-dimethyl-1H-pyrazolo[4,3-c]quinoxaline-8-carboxamide]
312 nM | > 10000 nM | CN(C(=O)c1ccc2nc(N)c3cnn(C)c3c2c1)C1COC2(CCC2)c2nc(N3CCOCC3)ccc21 (stereo not drawn) [Example 53, 4-amino-N,1-dimethyl-N-(2'-morpholino-5',6'-dihydrospiro[cyclobutane-1,8'-pyrano[3,4-b]pyridin]-5'-yl)-1H-pyrazolo[4,3-c]quinoxaline-8-carboxamide]
4.4 nM | 1330 nM | CN(C(=O)c1ccc2nc(N)c3cnn(C)c3c2c1)[C@@H]1COC(C)(C)c2cc(N3CC4COCC4C3)ccc21 (stereo partly drawn) [Example 56, 4-Amino-N-((4S)-1,1-dimethyl-7-(tetrahydro-1H-furo[3,4-c]pyrrol-5(3H)-yl)isochroman-4-yl)-N,1-dimethyl-1H-pyrazolo[4,3-c]quinoxaline-8-carboxamide]
